{"source": "patent US8993721B2", "about": "“Peptides for targeting apoptotic cells and uses thereof” (Kyungpook National University Industry-Academic Cooperation …, priority 2008, dated 2015)", "key": {"[1]": {"tested_on": "apoptotic cells in A549 tumor tissue xenotransplanted under the skin of nude mouse", "assay": "Histological analysis of tumor targeting (Example 2)", "format": "in vivo", "settings": "fluorescein-labeled peptide, tail vein, 50 μM final, 2 hours circulation; cryosections", "procedure": "All animal experiments were performed in accordance with the guideline of the Institutional Animal Care and Use Committee. For tumor xenotransplantation, human lung cancer cells (A549, 1×10^7 cells) suspended in RMPI-1640 medium was subcutaneously injected at the right upper or lower limb of a 6-week-old male BALB/c nude mouse (Hyochang Science). Then, 3 weeks were given for the tumor to grow to a size of 0.5 to 1 cm. The A549 cell line used in the experiment was cultured in RMPI-1640 medium containing 10% fetal bovine serum (FBS) in which antibiotics (penicillin and streptomycin) were included. Subculturing was performed every 3 or 4 days.\nThe peptides used in the present invention were fluorescein-attached form at the N-terminal. They were synthesized according to the standard Fmoc technique and then isolated through HPLC. The peptide synthesis was performed by an expertise company (Peptron).\nThe peptide of the present invention (ApoPep-1) or a control peptide (amino acid sequence: NSSSVDK), labeled with fluorescein, was injected into the tail vein of a mouse under isoflurane anesthesia, to a final concentration of 50 μM, and 2 hours was given for circulation.\nFor histological analysis, the mouse was anesthetized and the abdomen was cut open. After sequentially perfusing phosphate-buffered saline (PBS) and 4% paraformaldehyde through the heart, tumor tissues and organs were removed. Each tissue was cryosected and the peptide of the present invention was observed under a fluorescence microscope (Zeiss). Apoptosis in the tumor tissue was confirmed by TUNEL ([…] terminal deoxynucleotidyl transferase-mediated dUTP nick-end labeling) assay according to the instructions of the manufacturer (Chemicon). Fibrinogen staining was performed by immunohistochemistry using anti-fibrinogen antibody (Abcam) and secondary antibody labeled with Alexa 568, a red fluorescent reagent."}, "[2]": {"tested_on": "etoposide-treated apoptotic A549 cells", "assay": "FACS analysis of binding to apoptotic cells (Example 9-3)", "format": "cell-based, human", "procedure": "As another way of confirming the binding of the polypeptide of the present invention (ApoPep-2) to apoptotic cells, apoptotic cells were treated with the peptide, labeled with fluorescein, and the binding was confirmed through FACS analysis. First, apoptosis was induced by treating A549 cells with 50 μM etoposide for 20 hours. The apoptotic cells or normal cells were reacted with ApoPep-2 (10 μM) or a control peptide at the same concentration, labeled with fluorescein, at 4° C. or 37° C. for 1 hour. Further, the cells were reacted with fluorescein-labeled annexin V at room temperature for 15 minutes. After washing cells with PBS, FACS analysis was performed using a FACS instrument (Becton Dickinson)."}, "[3]": {"tested_on": "etoposide-treated apoptotic A549 cells", "assay": "FACS analysis of binding to apoptotic cells (Example 3-3)", "format": "cell-based, human", "procedure": "As another way of confirming the binding of the peptide of the present invention to apoptotic cells, apoptotic cells were treated with the peptide of the present invention, labeled with fluorescein, and the binding was confirmed through FACS analysis. […] The apoptotic cells or normal cells were reacted with ApoPep-1 (5 μM), ApoPep-2 (10 μM) or a control peptide at the same concentrations, labeled with fluorescein, at 4° C. for 1 hour. Further, the cells were reacted with fluorescein-labeled annexin V at room temperature for 15 minutes. After staining the cells with propodium iodide (PI) simultaneously, followed by washing with PBS, FACS analysis was performed using a FACS instrument (Becton Dickinson)."}, "[4]": {"tested_on": "A549 tumor xenotransplanted in nude mice", "assay": "In vivo fluorescence imaging of targeting of apoptotic cells in tumor (Example 10)", "parameters": "species or system mouse", "procedure": "Nude mice in which tumor was xenotransplanted using A549 cells were prepared as in Example <8-1>. The mice were grouped into a doxorubicin (Sigma) treated group (Dox+) and untreated group (Dox−). The treated group was treated with doxorubicin (5 mg/kg) one time, 12 hours prior to injection of the peptide. At the tail vein of each mouse, the polypeptide of the present invention or a control peptide, labeled with fluorescein or Cy7.5 near-infrared fluorescent dye, was injected at a final concentration of 50 μM, under isoflurane anesthesia. Following the injection, in vivo fluorescence images were obtained 0.5 hours and every hour, from 1 hour to 4 hours, after the injection, using an Optix exPlore instrument (ART). The images were standardized using the software provided with the instrument."}, "[5]": {"tested_on": "brain of stroke rat (middle cerebral artery occlusion/reperfusion)", "assay": "Molecular imaging of stroke (Example 6)", "format": "in vivo", "settings": "Cy7.5-labeled peptide 50 μM i.v.; one and three hours", "procedure": "A stroke model was established by occluding the left middle cerebral artery of a rat for 2 hours, followed by reperfusion. Two hours after the reperfusion, the peptide having an amino sequence represented by SEQ ID NO: 1 (ApoPep-1) and a control peptide, labeled with Cy7.5 NIR fluorescence, was intravenously injected at a final concentration of 50 μM to the stroke rat and a normal rat through the tail vein, under isoflurane anesthesia. One and three hours after the intravenous injection, NIR images of the head portion were obtained. Further, NIR fluorescence images of the brains of the rats of the 3 hour group were obtained."}, "[6]": {"tested_on": "A549 tumor xenotransplanted in nude mice", "assay": "In vivo fluorescence imaging of targeting of apoptotic cells in tumor (Example 4-1)", "parameters": "species or system mouse", "settings": "+Dox (10 mg/kg, 3 times); fluorescein-labeled peptide 50 μM", "procedure": "Nude mice in which tumor was xenotransplanted using A549 cells were prepared as in Example <2-1>. The mice were grouped into a doxorubicin (Sigma) treated group (+Dox) and untreated group (−Dox). The treated group was treated with doxorubicin (10 mg/kg) 3 times, with an interval of 48 hours, a week prior to injection of the peptide. At the tail vein of each mouse, the peptide of the present invention or a control peptide, labeled with fluorescein, was injected at a final concentration of 50 μM, under isoflurane anesthesia. Following the injection, in vivo fluorescence images were obtained every hour, from 1 hour to 6 hours after the injection, using an Optix exPlore instrument (GE Healthcare). The images were standardized using the software provided with the instrument.\nFurther, when the tumor grew considerably (1 cm or larger in diameter), the peptide of the present invention was injected at the same concentration as above, without doxorubicin treatment, and in vivo fluorescence images were obtained at every given time using an IVIS fluorescence imaging system (Chemipro)."}, "[7]": {"tested_on": "etoposide-treated apoptotic cells (A549, H460, HeLa, L132, RAW)", "assay": "Microscopic observation of binding of the peptide to apoptotic cells (Example 3-1)", "format": "cell-based", "settings": "10 μM fluorescein-labeled peptide 4° C. 1 hour", "procedure": "Cells were cultured in chamber slide (Nalgene Nunc) and treated with 50 μM etoposide (Sigma) for a given period of time (A549 and HeLa cells: for 15 hours, H460 cells: 24 hours, L132 cells: 3 hours, RAW cells: 6 hours) to induce apoptosis. The cells were cultured in RMPI-1640 medium (A549 and H460 cells) or DMEM (HeLa, L132 and RAW cells) containing antibiotics (penicillin and streptomycin) and 10% FBS. All the cells were subcultured every 3 or 4 days. The apoptosis-induced apoptotic cells were washed with PBS and blocked with 1% BSA at 37° C. for 30 minutes. Then, the cells were reacted with 10 μM of the peptide labeled with fluorescein, at 4° C. for 1 hour. After washing, the cells were reacted with an annexin V reaction buffer containing Alexa594-labeled annexin V (Molecular Probes), at room temperature for 15 minutes. The cells were washed with PBS and then fixed with 4% paraformaldehyde for 5 minutes. Thereafter, after counterstaining using the nuclear stain 4′,6-diamidino-2-phenylindole (DAPI), followed by treatment with a mounting solution (Molecular Probes), images of the cells were obtained under a fluorescence microscope (Zeiss)."}, "[8]": {"tested_on": "etoposide-treated apoptotic A549 cells", "assay": "Microscopic observation of binding of the peptide to apoptotic cells, A549 (Example 9-1)", "format": "cell-based, human", "settings": "Alexa594-annexin V", "procedure": "(§1) Cells were cultured in chamber slide (Nunc) and treated with 50 μM etoposide (Sigma) for 16 hours (A549 cells) or 50 ng/ml trail (R&D Systems) for 16 hours (MDA-MB231 cells) to induce apoptosis. The cells were cultured in RMPI-1640 medium (A549 cells) or DMEM-High (MDA-MB231 cells) containing antibiotics (penicillin and streptomycin) and 10% FBS. All the cells were sub-cultured every 3 or 4 days. The apoptosis-induced apoptotic cells were washed with PBS and blocked with 1% BSA at 37° C. for 30 minutes. Then, the cells were reacted with 10 μM of the peptide labeled with fluorescein, at 4° C. for 1 hour. After washing, the cells were reacted with an annexin V reaction buffer containing Alexa594-labeled annexin V (Invitrogen) at room temperature for 15 minutes. The cells were washed with PBS and then fixed with 4% paraformaldehyde for 5 minutes. After treatment with a mounting solution containing the DAPI nuclear stain, images of the cells were obtained under a fluorescence microscope."}, "apoptotic A549 cells [9]": {"tested_on": "apoptotic A549 cells", "assay": "Competitive inhibition of binding to apoptotic cells by annexin V treatment (Example 3-2)", "format": "cell-based, human", "settings": "pre-treatment at 0, 200 and 1000 μM; high concentration", "procedure": "In order to further investigate the binding properties of the peptide of the present invention (ApoPep-1) to apoptotic cells, competitive inhibition by annexin V was measured. To this end, first, apoptotic A549 cells were pre-treated with annexin V, not labeled with fluorescence, at concentrations of 0, 200 and […]. Then, after reacting the cells with fluorescence-labeled annexin V under the same condition as described in Example <3-1>, the binding of the cells was observed under a fluorescence microscope.\n(§2) Further, apoptotic A549 cells were pre-treated with annexin V, not labeled with fluorescence, at a concentration of 1000 μM. Then, after reacting the cells with fluorescence-labeled peptide under the same condition as described in Example <3-1>, the binding of the cells was observed under a fluorescence microscope."}, "[10]": {"tested_on": "trail-treated apoptotic MDA-MB231 cells", "assay": "Microscopic observation of binding of the peptide to apoptotic cells, MDA-MB231 (Example 9-1)", "format": "cell-based", "settings": "Alexa594-annexin V", "procedure": "as §1"}, "apoptotic A549 cells [11]": {"tested_on": "apoptotic A549 cells", "assay": "Competitive inhibition of binding to apoptotic cells by annexin V treatment (Example 9-2)", "format": "cell-based, human", "settings": "pre-treatment at 0, 500 and 1000 μM; high concentration", "procedure": "In order to further investigate the binding properties of the polypeptide of the present invention (ApoPep-2) to apoptotic cells, competitive inhibition by annexin V was measured. To this end, first, apoptotic A549 cells were pre-treated with annexin V, not labeled with fluorescence, at concentrations of 0, 500 and 1000 μM. Then, after reacting the cells with fluorescence-labeled annexin V under the same condition as described in Example <9-1>, the binding of the cells was observed under a fluorescence microscope.\nas §2, with “<9-1>,” for “<3-1>,”"}, "[12]": {"tested_on": "H460 tumor xenotransplanted in nude mice", "assay": "Radionuclide (micro PET) imaging of targeting of apoptotic cells in tumor (Example 4-2)", "format": "in vivo, mouse", "settings": "1 hour after injection", "procedure": "Nude mice in which tumor was xenotransplanted using H460 cells were prepared as in Example <2-1>. The mice were grouped into a doxorubicin (Sigma) treated group and untreated group. The treated group was treated with doxorubicin (10 mg/kg) 3 times, with an interval of 48 hours, a week prior to injection of the peptide. The peptide of the present invention (ApoPep-1), labeled with the radioactive isotope ^124I, was injected through the tail vein of each mouse under isoflurane anesthesia (treated group: 91 μCi; untreated group: 93 μCi). Further, ^18F-labeled FDG, which is frequently used for PET, was injected to the doxorubicin treated group and untreated group, at 300 μCi and 304 μCi, respectively. Radionuclide images were obtained using a micro PET instrument (Concorde MicroSystems) 5 hours after the injection of [^124I]ApoPep-1 and 1 hour after the injection of [^18F]FDG."}, "[13]": {"settings": "etoposide 15 hours, fluorescein-annexin V room temperature 15 minutes, PI"}}, "note": "Entries after “also recorded” stand apart in the source; their conditions may differ.", "data": [{"substance": "NSSSVDK [control peptide, reference compound]", "values": [{"measurement": "peptide fluorescence observed in the tumor tissue", "setting": "[1]", "value": "hardly observed"}, {"measurement": "binding to apoptotic cells (FACS)", "setting": "[2]; etoposide-treated A549, 10 μM, 4° C. or 37° C.", "value": "almost nonexistent or minimal"}, {"measurement": "binding to apoptotic cells (FACS)", "setting": "[3]; etoposide-treated A549 cells, 4° C. 1 hour", "value": "almost nonexistent"}, {"measurement": "ex vivo fluorescence signal from the kidney", "setting": "[4]; 4 hours after peptide injection, all the groups, renal clearance", "value": "strong"}, {"measurement": "fluorescence signal from the tumor, doxorubicin treated group", "setting": "[4]; Dox+, Cy7.5-labeled peptide 50 μM", "value": "targeting was not observed; also recorded: weakly detected"}, {"measurement": "NIR fluorescence at the head portion of the stroke rat", "setting": "[5]", "value": "almost nonexistent"}, {"measurement": "fluorescence signal from the tumor, doxorubicin treated group", "setting": "[6]", "value": "weakly detected or almost nonexistent"}]}, {"substance": "annexin V: 36 kDa protein that binds to phosphatidylserine; used to detect apoptotic cells [reference compound]", "values": [{"measurement": "percentage of the cells stained by annexin V", "setting": "[2]; etoposide 20 hours, fluorescein-annexin V room temperature 15 minutes", "value": 61, "unit": "%"}, {"measurement": "percentage of the cells stained by both annexin V and PI (fraction Q2, later stage of apoptosis)", "setting": "[3]; [13]", "value": 9.4, "unit": "%"}, {"measurement": "percentage of the cells stained only by annexin V (fraction Q4, early stage of apoptosis)", "setting": "[3]; [13]", "value": 64.3, "unit": "%"}, {"measurement": "labeling of normal cells not treated with etoposide", "setting": "[7]; Alexa594-annexin V", "value": "no labeling was observed"}, {"measurement": "labeling of etoposide-treated apoptotic cells (fluorescence microscopy)", "setting": "[7]; 50 μM etoposide, Alexa594-annexin V room temperature 15 minutes", "value": "labeling was observed"}, {"measurement": "labeling of A549 cells not treated with etoposide", "setting": "[8]; 10 μM peptide 4° C. 1 hour", "value": "no labeling was observed"}, {"measurement": "labeling of etoposide-treated apoptotic A549 cells", "setting": "[8]; 50 μM etoposide 16 hours, 10 μM fluorescein-labeled peptide 4° C. 1 hour", "value": "labeling was observed"}, {"measurement": "fluorescence of labeled annexin V after pre-treatment with unlabeled annexin V", "setting": "apoptotic A549 cells [9]", "value": "decreased significantly"}, {"measurement": "labeling of trail-treated apoptotic MDA-MB231 cells", "setting": "[10]; 50 ng/ml trail 16 hours, 10 μM fluorescein-labeled peptide 4° C. 1 hour", "value": "labeling was observed"}, {"measurement": "labeling of MDA-MB231 cells not treated with trail", "setting": "[10]; 10 μM peptide 4° C. 1 hour", "value": "no labeling was observed"}, {"measurement": "fluorescence of labeled annexin V after pre-treatment with unlabeled annexin V", "setting": "apoptotic A549 cells [11]", "value": "decreased significantly"}]}, {"substance": "fluorodeoxyglucose [[^18F]FDG]", "values": [{"measurement": "PET signal at the tumor site, doxorubicin treated group compared with untreated group", "setting": "[12]", "value": "weaker signal"}]}]}
